# Test results from article PMC12399242 (Acta Pharmaceutica Sinica. B, 2025).
# Read-outs that look alike come from different tables or passages of the source.
# Columns and labels:
# HIV-1 L100I = test: Antiviral activity against HIV-1 mutant L100I in MT-4 cells; type: cell-based; details: Human immunodeficiency virus 1, MT4, read-out: EC50 L100I
# [1] = test system: HIV-1 K103N + Y181C (RES056); test: Antiviral activity against HIV-1 double mutant K103N + Y181C (RES056) in MT-4 cells; type: cell-based; details: Human immunodeficiency virus 1, MT4, read-out: EC50 K103N + Y181C
# HIV-1 Y188L = test: Antiviral activity against HIV-1 mutant Y188L in MT-4 cells; type: cell-based; details: Human immunodeficiency virus 1, MT4, read-out: EC50 Y188L
# WT HIV-1 RT = WT HIV-1 RT (Human immunodeficiency virus type 1 group M subtype B, UniProt P03366); test: Inhibition of WT HIV-1 RT polymerase activity
# Description: The anti-HIV-1 activity of A1–A24 and B1–B22 at the cellular or enzyme level were evaluated following our previously reported method[15].
# HIV-1 Y181C = test: Antiviral activity against HIV-1 mutant Y181C in MT-4 cells; type: cell-based; details: Human immunodeficiency virus 1, MT4, read-out: EC50 Y181C
# HIV-1 K103N = test: Antiviral activity against HIV-1 mutant K103N in MT-4 cells; type: cell-based; details: Human immunodeficiency virus 1, MT4, read-out: EC50 K103N
# HIV-1 F227L + V106A = test: microbe, parasite or virus in culture; type: cell-based; details: Human immunodeficiency virus 1, MT4, read-out: EC50 F227L + V106A
# HIV-1 E138K = test: Antiviral activity against HIV-1 mutant E138K in MT-4 cells; type: cell-based; details: Human immunodeficiency virus 1, MT4, read-out: EC50 E138K
# HIV-1 (IIIB) [2] = test: microbe, parasite or virus in culture; type: cell-based; details: for SI (IIIB): selectivity index, ratio CC50/EC50; for EC50: mean ± SD, n ≥ 3
# Description: (§1) Inspired by our previous research on heteroaromatic-biphenyl-DAPYs[15], the 4-cyanophenyl group on the biphenyl moiety was replaced with a privileged 4-pyridyl group for further evaluation.
# in vitro = details: human, CC50
# Description: as §1
# HIV-1 (IIIB) [3] = details: earlier compounds of Fig. 1 / introduction, cited from earlier work
# [4] = Human immunodeficiency virus 1, IIIB, MT4, WT HIV-1, protection of MT-4 cells against HIV-induced cytopathogenicity
Compound,SI (IIIB) (HIV-1 (IIIB) [2]),CC50 (in vitro) [µM],EC50 (HIV-1 (IIIB) [2]; [4]) [µM],further results
"Cc1cc(-c2ccc(C#N)cc2)ccc1Nc1nc(Nc2ccc(C#N)cc2)ncc1F [A9, 4′-((2-((4-Cyanophenyl)amino)-5-fluoropyrimidin-4-yl)amino)-3′-methyl-[1,1′-biphenyl]-4-carbonitrile]",–,–,–,EC50 (HIV-1 L100I): 0.017 ± 0.0067 µM; EC50 [1]: 24.9 µM; EC50 (HIV-1 Y188L): 1.62 ± 0.382 µM; IC50 (WT HIV-1 RT): 0.036 ± 0.0048 µM; EC50 (HIV-1 Y181C): 0.0093 ± 0.0007 µM; EC50 (HIV-1 K103N): 0.0071 ± 0.0019 µM; EC50 (HIV-1 F227L + V106A): 37.7 µM; EC50 (HIV-1 E138K): 0.01 ± 0.0019 µM
"N#Cc1ccc(Nc2ncc(F)c(Nc3c(F)cc(-c4ccc(C#N)cc4)cc3F)n2)cc1 [A11, 4′-((2-((4-Cyanophenyl)amino)-5-fluoropyrimidin-4-yl)amino)-3′,5′-difluoro-[1,1′-biphenyl]-4-carbonitrile]",">40,000",> 45,–,EC50 (HIV-1 L100I): 0.01 ± 0.0029 µM; EC50 [1]: > 45.2 µM; EC50 (HIV-1 Y188L): > 45.2 µM; IC50 (WT HIV-1 RT): 0.027 ± 0.0023 µM; EC50 (HIV-1 Y181C): 0.0081 ± 0.002 µM; EC50 (HIV-1 K103N): 0.005 ± 0.0011 µM; EC50 (HIV-1 F227L + V106A): > 45.2 µM; EC50 (HIV-1 E138K): 0.0025 ± 0.0007 µM
"Cc1cc(-c2ccncc2)cc(C)c1Nc1nc(Nc2ccc(C#N)cc2)ncc1F [A24, 4-((4-((2,6-Dimethyl-4-(pyridin-4-yl)phenyl)amino)-5-fluoropyrimidin-2-yl)amino)benzonitrile]",–,–,–,EC50 (HIV-1 L100I): 0.0041 ± 0.0037 µM; EC50 [1]: 0.063 ± 0.012 µM; EC50 (HIV-1 Y188L): 0.09 ± 0.027 µM; IC50 (WT HIV-1 RT): 0.039 ± 0.0024 µM; EC50 (HIV-1 Y181C): 0.0093 ± 0.0056 µM; EC50 (HIV-1 K103N): 0.0019 ± 0.0005 µM; EC50 (HIV-1 F227L + V106A): 0.244 ± 0.146 µM; EC50 (HIV-1 E138K): 0.0083 ± 0.0054 µM
"N#Cc1ccc(Nc2ncc(Cl)c(Nc3ccc(-c4ccc(C#N)cc4)cc3F)n2)cc1 [B6, 4′-((5-Chloro-2-((4-cyanophenyl)amino)pyrimidin-4-yl)amino)-3′-fluoro-[1,1′-biphenyl]-4-carbonitrile]",>3911,> 45,0.012 ± 0.0027,–
"N#Cc1ccc(Nc2ncc(Cl)c(Nc3ccc(-c4ccc(C#N)cc4)cc3Cl)n2)cc1 [B7, 3′-Chloro-4′-((5-chloro-2-((4-cyanophenyl)amino)pyrimidin-4-yl)amino)-[1,1′-biphenyl]-4-carbonitrile]",>6026,> 273,0.046 ± 0.013,–
"Cc1cc(-c2ccc(C#N)cc2)ccc1Nc1nc(Nc2ccc(C#N)cc2)ncc1Cl [B8, 4′-((5-Chloro-2-((4-cyanophenyl)amino)pyrimidin-4-yl)amino)-3′-methyl-[1,1′-biphenyl]-4-carbonitrile]",>5556,> 46,0.0082 ± 0.0016,–
"COc1cc(-c2ccc(C#N)cc2)ccc1Nc1nc(Nc2ccc(C#N)cc2)ncc1Cl [B9, 4′-((5-Chloro-2-((4-cyanophenyl)amino)pyrimidin-4-yl)amino)-3′-methoxy-[1,1′-biphenyl]-4-carbonitrile]",2261,236 ± 24,0.104 ± 0.068,–
"N#Cc1ccc(Nc2ncc(Cl)c(Nc3c(F)cc(-c4ccc(C#N)cc4)cc3F)n2)cc1 [B10, 4′-((5-Chloro-2-((4-cyanophenyl)amino)pyrimidin-4-yl)amino)-3′,5′-difluoro-[1,1′-biphenyl]-4-carbonitrile]",–,–,–,EC50 (HIV-1 L100I): 0.017 ± 0.0081 µM; EC50 [1]: 0.676 ± 0.349 µM; EC50 (HIV-1 Y188L): 0.187 ± 0.052 µM; IC50 (WT HIV-1 RT): 0.031 ± 0.0022 µM; EC50 (HIV-1 Y181C): 0.011 ± 0.0015 µM; EC50 (HIV-1 K103N): 0.005 ± 0.0024 µM; EC50 (HIV-1 F227L + V106A): 0.959 ± 0.327 µM; EC50 (HIV-1 E138K): 0.0057 ± 0.0028 µM
"Cc1cc(-c2ccc(C#N)cc2)cc(C)c1Nc1nc(Nc2ccc(C#N)cc2)ncc1Cl [B11, 4′-((5-Chloro-2-((4-cyanophenyl)amino)pyrimidin-4-yl)amino)-3′,5′-dimethyl-[1,1′-biphenyl]-4-carbonitrile]","47,357",–,≤ 0.0053,"EC50 (HIV-1 L100I): 0.0055 ± 0.0018 µM; EC50 [1]: 0.102 ± 0.024 µM; EC50 (HIV-1 Y188L): 0.033 ± 0.0067 µM; IC50 (WT HIV-1 RT): 0.053 µM; EC50 (HIV-1 (IIIB) [2]; WT HIV-1, protection of MT-4 cells against HIV-induced cytopathogenicity): 0.0053 ± 0.0018 µM; EC50 (HIV-1 Y181C): 0.0098 ± 0.0033 µM; EC50 (HIV-1 K103N): 0.0044 ± 0.0011 µM; EC50 (HIV-1 F227L + V106A): 0.164 ± 0.071 µM; EC50 (HIV-1 E138K): 0.012 ± 0.0069 µM"
"N#Cc1ccc(Nc2ncc(Cl)c(Oc3ccc(-c4ccncc4)cc3F)n2)cc1 [B12, 4-((5-Chloro-4-(2-fluoro-4-(pyridin-4-yl)phenoxy)pyrimidin-2-yl)amino)benzonitrile]",>6173,> 48,0.0077 ± 0.0019,–
"N#Cc1ccc(Nc2ncc(Cl)c(Oc3ccc(-c4ccncc4)cc3Cl)n2)cc1 [B13, 4-((5-Chloro-4-(2-chloro-4-(pyridin-4-yl)phenoxy)pyrimidin-2-yl)amino)benzonitrile]",>7477,> 46,0.0062 ± 0.0016,–
"Cc1cc(-c2ccncc2)ccc1Oc1nc(Nc2ccc(C#N)cc2)ncc1Cl [B14, 4-((5-Chloro-4-(2-methyl-4-(pyridin-4-yl)phenoxy)pyrimidin-2-yl)amino)benzonitrile]",>1005,> 48,0.048 ± 0.022,–
"COc1cc(-c2ccncc2)ccc1Oc1nc(Nc2ccc(C#N)cc2)ncc1Cl [B15, 4-((5-Chloro-4-(2-methoxy-4-(pyridin-4-yl)phenoxy)pyrimidin-2-yl)amino)benzonitrile]",>6897,> 47,0.0067 ± 0.0023,–
"Cc1cc(-c2ccncc2)cc(C)c1Oc1nc(Nc2ccc(C#N)cc2)ncc1Cl [B16, 4-((5-Chloro-4-(2,6-dimethyl-4-(pyridin-4-yl)phenoxy)pyrimidin-2-yl)amino)benzonitrile]",2327,243 ± 62,0.105 ± 0.051,–
"N#Cc1ccc(Nc2ncc(Cl)c(Nc3ccc(-c4ccncc4)cc3F)n2)cc1 [B17, 4-((5-Chloro-4-((2-fluoro-4-(pyridin-4-yl)phenyl)amino)pyrimidin-2-yl)amino)benzonitrile]",>342,> 48,0.142 ± 0.014,–
"N#Cc1ccc(Nc2ncc(Cl)c(Nc3ccc(-c4ccncc4)cc3Cl)n2)cc1 [B18, 4-((5-Chloro-4-((2-chloro-4-(pyridin-4-yl)phenyl)amino)pyrimidin-2-yl)amino)benzonitrile]",>563,> 46,0.083 ± 0.069,–
"Cc1cc(-c2ccncc2)ccc1Nc1nc(Nc2ccc(C#N)cc2)ncc1Cl [B19, 4-((5-Chloro-4-((2-methyl-4-(pyridin-4-yl)phenyl)amino)pyrimidin-2-yl)amino)benzonitrile]",>1122,> 48,0.044 ± 0.0097,–
"COc1cc(-c2ccncc2)ccc1Nc1nc(Nc2ccc(C#N)cc2)ncc1Cl [B20, 4-((5-Chloro-4-((2-methoxy-4-(pyridin-4-yl)phenyl)amino)pyrimidin-2-yl)amino)benzonitrile]",306,164 ± 51,0.536 ± 0.326,–
"N#Cc1ccc(Nc2ncc(Cl)c(Nc3c(F)cc(-c4ccncc4)cc3F)n2)cc1 [B21, 4-((5-Chloro-4-((2,6-difluoro-4-(pyridin-4-yl)phenyl)amino)pyrimidin-2-yl)amino)benzonitrile]",680,1.3 ± 0.3,0.002 ± 0.0007,–
"Cc1cc(-c2ccncc2)cc(C)c1Nc1nc(Nc2ccc(C#N)cc2)ncc1Cl [B22, 4-((5-Chloro-4-((2,6-dimethyl-4-(pyridin-4-yl)phenyl)amino)pyrimidin-2-yl)amino)benzonitrile]","29,634",260 ± 6.5,0.0089 ± 0.0007,–
Cc1cc(-c2ccc(C#N)cc2)cc(C)c1Nc1ccnc(Nc2ccc(C#N)cc2)n1 [compound 3],–,–,–,"EC50 (HIV-1 (IIIB) [3]; WT HIV-1): 0.001 µM; SI (HIV-1 (IIIB) [3]): 2,059"
